Data from ChEMBL document CHEMBL4831492, “Design and synthesis of 2-(2-isonicotinoylhydrazineylidene)propanamides as InhA inhibitors with high antitubercular activity” (Eur J Med Chem, 2021).
≈ marks a conversion by molar mass, not a printed value. Calls of active or inactive are those of the source. The calls are words filed in the database; no cut-off is given here.

Tests used:
[1] = system: Mycobacterium tuberculosis; test: Antimycobacterial activity against drug susceptible Mycobacterium tuberculosis H37Rv assessed as minimal inhibitory concentration required for complete inhibition of mycobacterial growth incubated for 21 days; format: functional; conditions: 504 h, time 21 day
Mycobacterium avium [2] = test: Antimycobacterial activity against drug resistant Mycobacterium avium 330/88 assessed as inhibition of mycobacterial growth at 250 uM incubated for 14 days; format: functional, organism-based; conditions: time 14.0 day
Mycobacterium kansasii [3] = test: Antimycobacterial activity against drug resistant Mycobacterium kansasii 6509/96 assessed as minimal inhibitory concentration required for complete inhibition of mycobacterial growth incubated for 21 days; format: functional; conditions: 6509/96, 504 h, time 21 day
Mycobacterium kansasii [4] = test: Antimycobacterial activity against drug resistant Mycobacterium kansasii 6509/96 assessed as minimal inhibitory concentration required for complete inhibition of mycobacterial growth incubated for 7 days; format: functional; conditions: 6509/96, 168 h, time 7 day
Mycobacterium avium [5] = test: Antimycobacterial activity against drug resistant Mycobacterium avium 330/88 assessed as inhibition of mycobacterial growth at 250 uM incubated for 21 days; format: functional, organism-based; conditions: time 21.0 day
[6] = system: Mycobacterium tuberculosis; test: Antimycobacterial activity against drug susceptible Mycobacterium tuberculosis H37Rv assessed as minimal inhibitory concentration required for complete inhibition of mycobacterial growth incubated for 14 days; format: functional; conditions: 336 h, time 14 day
Mycobacterium kansasii [7] = test: Antimycobacterial activity against drug resistant Mycobacterium kansasii 6509/96 assessed as minimal inhibitory concentration required for complete inhibition of mycobacterial growth incubated for 14 days; format: functional; conditions: 6509/96, 336 h, time 14 day
Mycobacterium avium [8] = test: Antimycobacterial activity against drug resistant Mycobacterium avium 330/88 assessed as inhibition of mycobacterial growth at 500 uM incubated for 21 days; format: functional, organism-based; conditions: time 21.0 day
Mycobacterium avium [9] = test: Antimycobacterial activity against drug resistant Mycobacterium avium 330/88 assessed as inhibition of mycobacterial growth at 500 uM incubated for 14 days; format: functional, organism-based; conditions: time 14.0 day
Mycobacterium avium [10] = test: Antimycobacterial activity against drug resistant Mycobacterium avium 330/88 assessed as inhibition of mycobacterial growth at 125 uM incubated for 21 days; format: functional, organism-based; conditions: time 21.0 day
HepG2 [11] = test: Cytostatic activity in human HepG2 cells assessed as reduction in cell viability incubated overnight followed by compound washout and further incubated for 72 hrs in medium containing serum by MTT assay; format: functional, cell-based; conditions: HepG2, 72 h
Mycobacterium kansasii [12] = test: Antimycobacterial activity against drug resistant Mycobacterium kansasii 235/80 assessed as minimal inhibitory concentration required for complete inhibition of mycobacterial growth incubated for 21 days; format: functional; conditions: 235/80, 504 h, time 21 day
[13] = Selectivity index, ratio of CC50 for cytotoxicity against human HepG2 cells to MIC for antimycobacterial activity against drug susceptible Mycobacterium tuberculosis H37Rv; format: toxicity, cell-based; conditions: read-out: Selectivity Index
[14] = Selectivity index, ratio of CC50 for cytotoxicity against human HepG2 cells to MIC for antimycobacterial activity against drug susceptible Mycobacterium […]; format: toxicity, cell-based; conditions: read-out: Selectivity Index
Mycobacterium kansasii [15] = test: Antimycobacterial activity against drug resistant Mycobacterium kansasii 235/80 assessed as minimal inhibitory concentration required for complete inhibition of mycobacterial growth incubated for 7 days; format: functional; conditions: 235/80, 168 h, time 7 day
Mycobacterium kansasii [16] = test: Antimycobacterial activity against drug resistant Mycobacterium kansasii 235/80 assessed as minimal inhibitory concentration required for complete inhibition of mycobacterial growth incubated for 14 days; format: functional; conditions: 235/80, 336 h, time 14 day
Mycobacterium avium [17] = test: Antimycobacterial activity against drug resistant Mycobacterium avium 330/88 assessed as inhibition of mycobacterial growth at 125 uM incubated for 14 days; format: functional, organism-based; conditions: time 14.0 day
HepG2 [18] = test: Cytotoxicity against human HepG2 cells assessed as reduction in cell viability incubated overnight followed by compound washout by MTT assay; format: cell-based
Mycobacterium kansasii [19] = test: Antimycobacterial activity against drug resistant Mycobacterium kansasii 235/80 assessed as inhibition of mycobacterial growth at 62.5 uM incubated for 21 days; format: functional, organism-based; conditions: time 21.0 day
Mycobacterium kansasii [20] = test: Antimycobacterial activity against drug resistant Mycobacterium kansasii 235/80 assessed as inhibition of mycobacterial growth at 62.5 uM incubated for 14 days; format: functional, organism-based; conditions: time 14.0 day
Mycobacterium avium [21] = test: Antimycobacterial activity against drug resistant Mycobacterium avium 330/88 assessed as minimal inhibitory concentration required for complete inhibition of mycobacterial growth incubated for 14 days; format: functional; conditions: 330/88, 336 h, time 14 day
[22] = system: Mycobacterium tuberculosis; test: Antimycobacterial activity against Mycobacterium tuberculosis H37Ra carrying pMC261/pVV16 plasmid assessed as bacterial growth inhibition incubated for 28 days by drop dilution method; format: functional; conditions: 672 h, time 28 day
[23] = system: Mycobacterium tuberculosis; test: Inhibition of mycolic acid synthesis in Mycobacterium tuberculosis H37Ra assessed as decrease in production of trehalose monomycolates at MIC incubated for 24 hrs followed by 14C labelling and further incubated for 24 hrs by TLC based autoradiography analysis; format: functional, organism-based; conditions: time 48.0 hrs
[24] = system: Mycobacterium tuberculosis; test: Inhibition of mycolic acid synthesis in Mycobacterium tuberculosis H37Ra assessed as decrease in production of trehalose dimycolates at MIC incubated for 24 hrs followed by 14C labelling and further incubated for 24 hrs by TLC based autoradiography analysis; format: functional, organism-based; conditions: time 48.0 hrs
Mycobacterium avium [25] = test: Antimycobacterial activity against drug resistant Mycobacterium avium 330/88 assessed as minimal inhibitory concentration required for complete inhibition of mycobacterial growth incubated for 21 days; format: functional; conditions: 330/88, 504 h, time 21 day
[26] = system: Mycobacterium tuberculosis; test: Inhibition of mycolic acid synthesis in Mycobacterium tuberculosis H37Ra assessed as decrease in production of mycolic acid at MIC incubated for 24 hrs followed by 14C addition and further incubated for 24 hrs by TLC based autoradiography analysis; format: functional, organism-based; conditions: time 48.0 hrs
[27] = system: Mycobacterium tuberculosis; test: Inhibition of mycolic acid synthesis in Mycobacterium tuberculosis H37Ra assessed as decrease in production of standard fatty acid at MIC incubated for 24 hrs followed by 14C labelling and further incubated for 24 hrs by TLC based autoradiography analysis; format: functional, organism-based; conditions: time 48.0 hrs

Row | SMILES | MIC [1] [µM] | MIC (Mycobacterium kansasii [3]) [µM] | MIC (Mycobacterium kansasii [4]) [µM] | MIC [6] [µM] | MIC (Mycobacterium kansasii [7]) [µM] | IC50 (HepG2 [11]) [µM] | MIC (Mycobacterium kansasii [12]) [µM] | selectivity ratio [13] | selectivity ratio [14] | MIC (Mycobacterium kansasii [15]) [µM] | MIC (Mycobacterium kansasii [16]) [µM] | IC50 (HepG2 [18]) [µM] | MIC (Mycobacterium avium [21]) [µM] | MIC (Mycobacterium avium [25]) [µM] | also measured
1 | C/C(=N\NC(=O)c1ccncc1)C(=O)Nc1ccc(SC(F)(F)F)cc1 | 0.5 (≈ 0.191 µg/mL) | 4 (≈ 1.53 µg/mL) | 4 (≈ 1.53 µg/mL) | 0.5 (≈ 0.191 µg/mL) | 4 (≈ 1.53 µg/mL) | – | – | – | – | – | – | – | – | – | Activity (Mycobacterium avium [2]): inactive; Activity (Mycobacterium avium [5]): inactive
2 | C/C(=N\NC(=O)c1ccncc1)C(=O)Nc1cccc(OC(F)(F)F)c1 | 0.5 (≈ 0.183 µg/mL) | 8 (≈ 2.93 µg/mL) | 4 (≈ 1.47 µg/mL) | 0.125 (≈ 0.0458 µg/mL) | 8 (≈ 2.93 µg/mL) | – | – | – | – | – | – | – | – | – | Activity (Mycobacterium avium [8]): inactive; Activity (Mycobacterium avium [9]): inactive
3 | C/C(=N\NC(=O)c1ccncc1)C(=O)Nc1ccc(C(F)(F)F)cc1 | ≤ 0.03 | 4 (≈ 1.4 µg/mL) | 2 (≈ 0.701 µg/mL) | ≤ 0.03 | 4 (≈ 1.4 µg/mL) | > 50 | 32 (≈ 11.2 µg/mL) | > 1670 | > 12.5 | 8 (≈ 2.8 µg/mL) | 16 (≈ 5.6 µg/mL) | > 50 | – | – | Activity (Mycobacterium avium [10]): inactive; Activity (Mycobacterium avium [17]): inactive
4 | C/C(=N\NC(=O)c1ccncc1)C(=O)Nc1ccc(F)c(F)c1 | 0.5 (≈ 0.159 µg/mL) | 8 (≈ 2.55 µg/mL) | 2 (≈ 0.637 µg/mL) | 0.25 (≈ 0.0796 µg/mL) | 4 (≈ 1.27 µg/mL) | – | – | – | – | – | – | – | – | – | Activity (Mycobacterium avium [8]): inactive; Activity (Mycobacterium avium [9]): inactive
5 | C/C(=N\NC(=O)c1ccncc1)C(=O)Nc1cccc(Cl)c1 | 0.125 (≈ 0.0396 µg/mL) | 4 (≈ 1.27 µg/mL) | 2 (≈ 0.633 µg/mL) | 0.125 (≈ 0.0396 µg/mL) | 2 (≈ 0.633 µg/mL) | > 50 | – | > 400 | > 12.5 | 32 (≈ 10.1 µg/mL) | – | > 50 | – | – | Activity (Mycobacterium kansasii [19]): inactive; Activity (Mycobacterium avium [10]): inactive; Activity (Mycobacterium kansasii [20]): inactive; Activity (Mycobacterium avium [17]): inactive
6 | C/C(=N\NC(=O)c1ccncc1)C(=O)Nc1ccc(I)cc1 | 0.25 (≈ 0.102 µg/mL) | 4 (≈ 1.63 µg/mL) | 2 (≈ 0.816 µg/mL) | 0.25 (≈ 0.102 µg/mL) | 4 (≈ 1.63 µg/mL) | > 50 | 8 (≈ 3.27 µg/mL) | > 200 | > 12.5 | 8 (≈ 3.27 µg/mL) | 8 (≈ 3.27 µg/mL) | > 50 | 250 (≈ 102 µg/mL) | 250 (≈ 102 µg/mL) | MIC [22]: 0.5 µM (≈ 0.204 µg/mL); inhibition [23]: Active; inhibition [24]: Active; inhibition [26]: Active; inhibition [27]: inactive
7 | C/C(=N\NC(=O)c1ccncc1)C(=O)Nc1ccc(F)cc1 | 0.25 (≈ 0.0751 µg/mL) | 8 (≈ 2.4 µg/mL) | 2 (≈ 0.601 µg/mL) | 0.25 (≈ 0.0751 µg/mL) | 4 (≈ 1.2 µg/mL) | > 50 | 250 (≈ 75.1 µg/mL) | > 200 | > 625 | 62.5 (≈ 18.8 µg/mL) | 125 (≈ 37.5 µg/mL) | > 50 | > 250 | > 250 | –
8 | C/C(=N\NC(=O)c1ccncc1)C(=O)Nc1ccc(Br)cc1 | 0.125 (≈ 0.0451 µg/mL) | 16 (≈ 5.78 µg/mL) | 4 (≈ 1.44 µg/mL) | 0.06 (≈ 0.0217 µg/mL) | 8 (≈ 2.89 µg/mL) | > 50 | 16 (≈ 5.78 µg/mL) | > 400 | > 3.12 | 16 (≈ 5.78 µg/mL) | 16 (≈ 5.78 µg/mL) | > 50 | 250 (≈ 90.3 µg/mL) | 250 (≈ 90.3 µg/mL) | –
9 | C/C(=N\NC(=O)c1ccncc1)C(=O)O [PYRUVIC ACID ISONIAZID] | 1 (≈ 0.207 µg/mL) | 16 (≈ 3.32 µg/mL) | 8 (≈ 1.66 µg/mL) | 1 (≈ 0.207 µg/mL) | 16 (≈ 3.32 µg/mL) | > 50 | 16 (≈ 3.32 µg/mL) | > 50 | > 3.12 | 8 (≈ 1.66 µg/mL) | 16 (≈ 3.32 µg/mL) | > 50 | 500 (≈ 104 µg/mL) | > 1000 | –
10 | C/C(=N\NC(=O)c1ccncc1)C(=O)Nc1ccc(Cl)c(Cl)c1 | 0.06 (≈ 0.0211 µg/mL) | 16 (≈ 5.62 µg/mL) | 4 (≈ 1.4 µg/mL) | 0.06 (≈ 0.0211 µg/mL) | 8 (≈ 2.81 µg/mL) | > 50 | > 250 | > 833 | > 3.12 | > 250 | > 250 | > 50 | > 250 | > 250 | –
11 | C/C(=N\NC(=O)c1ccncc1)C(=O)Nc1ccc(OC(F)(F)F)cc1 | ≤ 0.03 | 4 (≈ 1.47 µg/mL) | 2 (≈ 0.733 µg/mL) | ≤ 0.03 | 2 (≈ 0.733 µg/mL) | > 50 | 16 (≈ 5.86 µg/mL) | > 1670 | > 12.5 | 8 (≈ 2.93 µg/mL) | 8 (≈ 2.93 µg/mL) | > 50 | – | – | Activity (Mycobacterium avium [10]): inactive; MIC [22]: 0.3 µM (≈ 0.11 µg/mL); inhibition [23]: Active; inhibition [24]: Active; Activity (Mycobacterium avium [17]): inactive; inhibition [26]: Active; inhibition [27]: inactive
12 | C/C(=N\NC(=O)c1ccncc1)C(=O)Nc1cccc(F)c1 | 0.25 (≈ 0.0751 µg/mL) | 8 (≈ 2.4 µg/mL) | 2 (≈ 0.601 µg/mL) | 0.25 (≈ 0.0751 µg/mL) | 4 (≈ 1.2 µg/mL) | – | – | – | – | – | – | – | – | – | Activity (Mycobacterium avium [8]): inactive; Activity (Mycobacterium avium [9]): inactive
